Columns and labels:
human DP1 receptor = target: T1, human DP1 receptor (Homo sapiens, UniProt Q13258); experiment: DP1 radioligand binding assay using [3H]BWA868C; details: hDP1 binding
T1 construct: tissue Biological Specialty Corporation; host or cells: human platelets, membranes
T1 sequence (Q13258 1-359): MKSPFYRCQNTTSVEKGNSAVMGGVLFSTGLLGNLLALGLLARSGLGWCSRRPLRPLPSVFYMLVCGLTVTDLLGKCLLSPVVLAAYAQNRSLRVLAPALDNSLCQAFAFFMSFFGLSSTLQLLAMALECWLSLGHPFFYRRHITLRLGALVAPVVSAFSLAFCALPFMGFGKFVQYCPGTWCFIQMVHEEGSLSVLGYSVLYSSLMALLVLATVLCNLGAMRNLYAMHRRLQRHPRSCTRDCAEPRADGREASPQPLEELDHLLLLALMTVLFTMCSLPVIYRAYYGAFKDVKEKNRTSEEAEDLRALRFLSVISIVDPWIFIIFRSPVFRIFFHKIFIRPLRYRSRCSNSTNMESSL
Description: The ability of a compound to bind to the human DP1 receptor was evaluated via a radioligand membrane binding assay using the DP1 selective synthetic ligand [^3H]BW A868C. Packed human platelets (Biological Specialty Corporation), were resuspended in 6 volumes of Hepes/HBSS buffer (10 mM Hepes, 1 mM DTT in Hanks Balanced Salt Solution (HBSS)), lysed and centrifuged at 75,000×g to pellet the membranes. Membranes were resuspended in Hepes/HBSS buffer to approximately 12 mg protein/ml. Membranes (20 μg protein/well) are incubated in 96-well plates with 2 nM [^3H]BWA868C and test compound in Assay Buffer (50 mM Hepes, 10 mM MnCl2, 1 mM EDTA, plus or minus 0.2% human serum albumin, pH 7.4) for 60 minutes at room temperature. The reactions are terminated by rapid filtration through Whatman GF/C glass fibre filter plates. The filter plates were pre-soaked in 0.33% polethylenimine for 30 minutes at room temperature then washed in Wash Buffer (50 mM Hepes, 0.5 M NaCl pH 7.4) prior to harvesting. After harvesting, the filter plates are washed 3 times with 1 ml cold Wash Buffer then dried. Scintillant is then added to the plates and the radioactivity retained on the filters is determined on a Packard TopCount (Perkin Elmer). Specific binding is determined as total radioactive binding minus non-specific binding in the presence of 10 μM BW A868C. IC50s were determined using GraphPad prism analysis of drug titration curves.

human DP2 receptor = target: T2, human DP2 receptor (Homo sapiens, UniProt Q9Y5Y4); experiment: DP2/CRTH2 radioligand binding assay using [3H]PGD2; details: hDP2 (CRTH2) binding assay
T2 construct: expressed in transfected cells
T2 sequence (Q9Y5Y4 1-395): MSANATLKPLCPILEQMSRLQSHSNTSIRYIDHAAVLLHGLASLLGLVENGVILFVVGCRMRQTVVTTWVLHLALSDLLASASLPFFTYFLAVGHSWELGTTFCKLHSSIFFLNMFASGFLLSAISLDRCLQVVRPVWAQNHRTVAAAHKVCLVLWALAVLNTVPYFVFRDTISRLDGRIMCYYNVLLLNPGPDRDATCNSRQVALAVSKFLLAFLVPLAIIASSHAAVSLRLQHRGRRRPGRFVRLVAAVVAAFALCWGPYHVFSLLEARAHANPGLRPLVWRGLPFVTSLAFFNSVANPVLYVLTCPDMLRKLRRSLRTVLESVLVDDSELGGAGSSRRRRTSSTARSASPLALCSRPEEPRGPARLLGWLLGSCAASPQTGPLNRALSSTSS
Description: The ability of a compound to bind to the human DP2 receptor is assessed via a radioligand binding assay using [^3H]PGD2. HEK293 cells stably expressing recombinant human DP2 are resuspended in 10 mM Hepes, 7.4 containing 1 mM DTT, lysed and centrifuged at 75,000×g to pellet the membranes. The membranes are resuspended in 10 mM Hepes, 7.4 containing 1 mM DTT and 10% glycerol to approximately 5 mg protein/ml. Membranes (2-10 μg protein/well) are incubated in 96-well plates with 1 nM [^3H]PGD2 and test compound in Assay Buffer (50 mM Hepes, 10 mM MnCl2, 1 mM EDTA, plus or minus 0.2% human serum albumin, pH 7.4) for 60 minutes at room temperature. The reactions are terminated by rapid filtration through Whatman GF/C glass fibre filter plates. The filter plates were pre-soaked in 0.33% polythylenimine for 30 minutes at room temperature then washed in Wash Buffer (50 mM Hepes, 0.5 M NaCl pH 7.4) prior to harvesting. After harvesting, the filter plates are washed 3 times with 1 ml cold Wash Buffer then dried. Scintillant is then added to the plates and the radioactivity retained on the filters is determined on a Packard TopCount (Perkin Elmer). Specific binding is determined as total radioactive binding minus non-specific binding in the presence of 10 μM PGD2. IC50s were determined using GraphPad prism analysis of drug titration curves.

| SMILES | IC50 (human DP1 receptor) | IC50 (human DP2 receptor) |
| --- | --- | --- |
| O=C(O)Cc1cccc(Oc2ccccc2CN2CCOC2=O)c1 [Compound 1-1, {3-[2-(2-Oxo-oxazolidin-3-ylmethyl)-phenoxy]-phenyl}-acetic acid] | > 1000 nM | > 1000 nM |
| O=C(O)Cc1cccc(Oc2ccc(F)cc2CN2CCOC2=O)c1 [Compound 1-2, {3-[4-Fluoro-2-(2-oxo-oxazolidin-3-ylmethyl)-phenoxy]-phenyl}-acetic acid] | > 1000 nM | > 1000 nM |
| Cc1ccc(Oc2cccc(CC(=O)O)c2)c(CN2CCOC2=O)c1 [Compound 1-4, {3-[4-Methyl-2-(2-oxo-oxazolidin-3-ylmethyl)-phenoxy]-phenyl}-acetic acid] | > 1000 nM | 300 to 1000 nM |
| CC(C)(C(=O)O)c1cccc(Oc2ccc(C(F)(F)F)cc2CN2CCOC2=O)c1 [Compound 1-11, 2-Methyl-2-{3-[2-(2-oxo-oxazolidin-3-ylmethyl)-4-trifluoromethyl-phenoxy]-phenyl}-propionic acid] | > 1000 nM | > 1000 nM |
| O=C(O)Cc1cc(Oc2ccc(C(F)(F)F)cc2CN2CCOC2=O)ccc1Br [Compound 1-12, {2-Bromo-5-[2-(2-oxo-oxazolidin-3-ylmethyl)-4-trifluoromethyl-phenoxy]-phenyl}-acetic acid] |  | > 1000 nM |
| C[C@H]1[C@@H](c2ccccc2)OC(=O)N1Cc1cc(-c2ccccn2)ccc1Oc1cccc(CC(=O)O)c1 [Compound 1-19, {3-[2-((4S,5R)-4-Methyl-2-oxo-5-phenyl-oxazolidin-3-ylmethyl)-4-pyridin-2-yl-phenoxy]-phenyl}-acetic acid] | < 300 nM | < 300 nM |
| C[C@H]1[C@@H](c2ccccc2)OC(=O)N1Cc1cc(-c2cnc(N)cn2)ccc1Oc1cccc(CC(=O)O)c1 [Compound 1-20, {3-[4-(5-Amino-pyrazin-2-yl)-2-((4S,5R)-4-methyl-2-oxo-5-phenyl-oxazolidin-3-ylmethyl)-phenoxy]-phenyl}-acetic acid] | < 300 nM | 300 to 1000 nM |
| C[C@H]1[C@@H](c2ccccc2)OC(=O)N1Cc1cc(-c2cnn(C)c2)ccc1Oc1cccc(CC(=O)O)c1 [Compound 1-21, {3-[2-((4S,5R)-4-Methyl-2-oxo-5-phenyl-oxazolidin-3-ylmethyl)-4-(1-methyl-1H-pyrazol-4-yl)-phenoxy]-phenyl}-acetic acid] | < 300 nM | < 300 nM |
| Cc1ncc(-c2ccc(Oc3cccc(CC(=O)O)c3)c(CN3C(=O)O[C@H](c4ccccc4)[C@@H]3C)c2)[nH]1 [Compound 1-23, {3-[4-(2-Methyl-3H-imidazol-4-yl)-2-((4S,5R)-4-methyl-2-oxo-5-phenyl-oxazolidin-3-ylmethyl)-phenoxy]-phenyl}-acetic acid] | > 1000 nM | < 300 nM |
| C[C@H]1[C@@H](c2ccccc2)OC(=O)N1Cc1cc(-c2ccc(C(N)=O)cn2)ccc1Oc1cccc(CC(=O)O)c1 [Compound 1-68, {3-[4-(5-Carbamoyl-pyridin-2-yl)-2-((4S,5R)-4-methyl-2-oxo-5-phenyl-oxazolidin-3-ylmethyl)-phenoxy]-phenyl}-acetic acid] | < 300 nM | 300 to 1000 nM |
| C[C@H]1[C@@H](c2ccccc2)OC(=O)N1Cc1cc(-c2ccc(N)cn2)ccc1Oc1cccc(CC(=O)O)c1 [Compound 1-69, {3-[4-(5-Amino-pyridin-2-yl)-2-((4S,5R)-4-methyl-2-oxo-5-phenyl-oxazolidin-3-ylmethyl)-phenoxy]-phenyl}-acetic acid] | < 300 nM | < 300 nM |
| Cc1nc(-c2ccc(Oc3cccc(CC(=O)O)c3)c(CN3C(=O)O[C@H](c4ccccc4)[C@@H]3C)c2)cn1C [Compound 1-70, {3-[4-(1,2-Dimethyl-1H-imidazol-4-yl)-2-((4S,5R)-4-methyl-2-oxo-5-phenyl-oxazolidin-3-ylmethyl)-phenoxy]-phenyl}-acetic acid] | > 1000 nM | < 300 nM |
| Cc1ncc(-c2ccc(Oc3cccc(CC(=O)O)c3)c(CN3C(=O)O[C@H](c4ccccc4)[C@@H]3C)c2)n1C [Compound 1-71, {3-[4-(2,3-Dimethyl-3H-imidazol-4-yl)-2-((4S,5R)-4-methyl-2-oxo-5-phenyl-oxazolidin-3-ylmethyl)-phenoxy]-phenyl}-acetic acid] | 300 to 1000 nM | 300 to 1000 nM |
| COc1ccc(CC(=O)O)cc1Oc1ccc(NC(=O)C(C)(C)C)cc1CN1CCOC1=O [Compound 1-100, {3-[4-(2,2-Dimethyl-propionylamino)-2-(2-oxo-oxazolidin-3-ylmethyl)-phenoxy]-4-methoxy-phenyl}-acetic acid] |  | < 300 nM |
| COc1ccc(CC(=O)O)cc1Oc1ccc(NC(=O)Cc2ccccc2)cc1CN1CCOC1=O [Compound 1-101, {4-Methoxy-3-[2-(2-oxo-oxazolidin-3-ylmethyl)-4-phenylacetylamino-phenoxy]-phenyl}-acetic acid] |  | < 300 nM |
| COc1ccc(CC(=O)O)cc1Oc1ccc(NC(=O)C2CCCCC2)cc1CN1CCOC1=O [Compound 1-102, {3-[4-(Cyclohexanecarbonyl-amino)-2-(2-oxo-oxazolidin-3-ylmethyl)-phenoxy]-4-methoxy-phenyl}-acetic acid] |  | < 300 nM |
| COc1ccc(CC(=O)O)cc1Oc1ccc(NC(=O)C(C)C)cc1CN1CCOC1=O [Compound 1-103, {3-[4-Isobutyrylamino-2-(2-oxo-oxazolidin-3-ylmethyl)-phenoxy]-4-methoxy-phenyl}-acetic acid] |  | < 300 nM |
| COc1ccc(CC(=O)O)cc1Oc1ccc(NC(=O)c2ccncc2)cc1CN1CCOC1=O [Compound 1-104, (4-Methoxy-3-{2-(2-oxo-oxazolidin-3-ylmethyl)-4-[(pyridine-4-carbonyl)-amino]-phenoxy}-phenyl)-acetic acid] |  | < 300 nM |
| COc1ccc(CC(=O)O)cc1Oc1ccc(NC(=O)c2cccnc2)cc1CN1CCOC1=O [Compound 1-105, (4-Methoxy-3-{2-(2-oxo-oxazolidin-3-ylmethyl)-4-[(pyridine-3-carbonyl)-amino]-phenoxy}-phenyl)-acetic acid] |  | > 1000 nM |
| COc1ccc(CC(=O)O)cc1Oc1ccc(NC(=O)COc2ccccc2)cc1CN1CCOC1=O [Compound 1-106, {4-Methoxy-3-[2-(2-oxo-oxazolidin-3-ylmethyl)-4-(2-phenoxy-acetylamino)-phenoxy]-phenyl}-acetic acid] |  | < 300 nM |
| COCC(=O)Nc1ccc(Oc2cc(CC(=O)O)ccc2OC)c(CN2CCOC2=O)c1 [Compound 1-107, {4-Methoxy-3-[4-(2-methoxy-acetylamino)-2-(2-oxo-oxazolidin-3-ylmethyl)-phenoxy]-phenyl}-acetic acid] |  | 300 to 1000 nM |
| COc1ccc(CC(=O)O)cc1Oc1ccc(NC(=O)NCc2ccccc2)cc1CN1CCOC1=O [Compound 1-108, {3-[4-(3-Benzyl-ureido)-2-(2-oxo-oxazolidin-3-ylmethyl)-phenoxy]-4-methoxy-phenyl}-acetic acid] |  | < 300 nM |

— US8242145B2, “Cyclic diaryl ether compounds as antagonists of prostaglandin D2 receptors” (Panmira Pharmaceuticals, LLC, priority 2008, dated 2012)
